Laboratory results reported in patent publication US9468661B2, “Pyrrolidine derivatives and their use as complement pathway modulators” (priority 2012, dated 2016).

Target: human factor D (Homo sapiens (Human), UniProt P00746)
Experiment: biochemical
Format: biochemical
Settings: Factor D inhibition data using Method 1; recombinant human factor D 10 nM, substrate Z-Lys-thiobenzyl, fluorescence; read-out: IC50
Description: Human Complement Factor D Assay: Method 1
Recombinant human factor D (expressed in E. coli and purified using standard methods) at 10 nM concentration is incubated with test compound at various concentrations for 1 hour at room temperature in 0.1 M Hepes buffer, pH 7.5, containing 1 mM MgCl2, 1 M NaCl and 0.05% CHAPS. A synthetic substrate Z-Lys-thiobenzyl and 2,4-dinitrobenzenesulfonyl-fluoresceine are added to final concentrations of 200 μM and 25 μM, respectively. The increase in fluorescence is recorded at excitation of 485 nm and emission at 535 nm in a microplate spectrofluorimeter. IC50 values are calculated from percentage of inhibition of complement factor D-activity as a function of test compound concentration.

Sequence of human factor D (P00746 26-253): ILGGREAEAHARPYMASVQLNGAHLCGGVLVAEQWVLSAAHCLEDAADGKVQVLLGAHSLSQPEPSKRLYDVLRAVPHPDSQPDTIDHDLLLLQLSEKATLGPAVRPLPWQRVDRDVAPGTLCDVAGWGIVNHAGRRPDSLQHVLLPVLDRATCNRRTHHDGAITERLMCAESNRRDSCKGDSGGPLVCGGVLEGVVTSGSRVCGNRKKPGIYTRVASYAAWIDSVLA

Compound	IC50
C[C@@H](NC(=O)[C@@H]1C[C@@H](F)CN1C(=O)Cn1nc(C(N)=O)c2ccccc21)[C@H]1CC1(Cl)Cl [Example 58, 1-(2-{(2S,4R)-2-[(R)-1-((R)-2,2-Dichloro-cyclopropyl)-ethylcarbamoyl]-4-fluoro-pyrrolidin-1-yl}-2-oxo-ethyl)-1H-indazole-3-carboxylic acid amide]	39 nM
CC(=O)c1nn(CC(=O)N2[C@@H]3C[C@@H]3C[C@H]2C(=O)N[C@H](C)[C@H]2CC2(Cl)Cl)c2ccc(OCc3cc(C)[nH]n3)cc12 [Example 64, (1R,3S,5R)-2-{2-[3-Acetyl-5-(5-methyl-1H-pyrazol-3-ylmethoxy)-indazol-1-yl]-acetyl}-2-aza-bicyclo[3.1.0]hexane-3-carboxylic acid [(R)-1-((R)-2,2-dichloro-cyclopropyl)-ethyl]-amide]	3 nM
NC(=O)c1nn(CC(=O)N2[C@@H]3C[C@@H]3C[C@H]2C(=O)NCC2CC2(F)F)c2ccccc12 (stereo partly drawn) [Example 67, 1-(2-{(1R,3S,5R)-3-[(2,2-Difluoro-cyclopropylmethyl)-carbamoyl]-2-aza-bicyclo[3.1.0]hex-2-yl}-2-oxo-ethyl)-1H-indazole-3-carboxylic acid amide]	428 nM
CC(=O)c1nn(CC(=O)N2[C@@H]3C[C@@H]3C[C@H]2C(=O)NCC2CC(F)(F)C2)c2ccc(OCc3ncccn3)cc12 [Example 62, (1R,3S,5R)-2-{2-[3-Acetyl-5-(pyrimidin-2-ylmethoxy)-indazol-1-yl]-acetyl}-2-aza-bicyclo[3.1.0] hexane-3-carboxylic acid (3,3-difluoro-cyclobutylmethyl)-amide]	162 nM
CC1CCCC1CNC(=O)[C@@H]1C[C@H]2C[C@H]2N1C(=O)Cn1nc(C(N)=O)c2ccncc21 (single isomer, unassigned; dia 2) [Example 86]	610 nM
CO[C@H]1[C@@H](C(=O)N[C@H](C)[C@H]2CC2(Cl)Cl)N(C(=O)Cn2nc(C(N)=O)c3ccccc32)C[C@@H]1F [Example 59, 1-(2-{(2S,3S,4S)-2-[(R)-1-((R)-2,2-Dichloro-cyclopropyl)-ethylcarbamoyl]-4-fluoro-3-methoxy-pyrrolidin-1-yl}-2-oxo-ethyl)-1H-indazole-3-carboxylic acid amide]	14 nM
NC(=O)c1nn(CC(=O)N2[C@@H]3C[C@@H]3C[C@H]2C(=O)NC[C@H]2CC2(Cl)Cl)c2cc(Cl)ccc12 [Example 114, 6-Chloro-1-(2-{(1R,3S,5R)-3-[((R)-2,2-dichloro-cyclopropylmethyl)-carbamoyl]-2-aza-bicyclo[3.1.0]hex-2-yl}-2-oxo-ethyl)-1H-indazole-3-carboxylic acid amide]	40 nM
CC(=O)c1nn(CC(=O)N2[C@@H]3C[C@@H]3C[C@H]2C(=O)NC[C@H]2CC2(Cl)Cl)c2ccc(CCc3ncccn3)cc12 [Example 43, (1R,3S,5R)-2-{2-[3-Acetyl-5-(2-pyrimidin-2-yl-ethyl)-indazol-1-yl]-acetyl}-2-aza-bicyclo[3.1.0] hexane-3-carboxylic acid ((R)-2,2-dichloro-cyclopropylmethyl)-amide]	71 nM
CC(=O)c1nn(CC(=O)N2[C@@H]3C[C@@H]3C[C@H]2C(=O)NCC2CCCC(C(F)(F)F)C2)c2cnccc12 (stereo partly drawn) [Example 14, (1R,3S,5R)-2-[2-(3-Acetyl-pyrazolo[3,4-c]pyridin-1-yl)-acetyl]-2-aza-bicyclo[3.1.0] hexane-3-carboxylic acid (3-trifluoromethyl-cyclohexylmethyl)-amide]	334 nM
C[C@@H](NC(=O)[C@@H]1C[C@H]2C[C@H]2N1C(=O)Cn1nc(C(N)=O)c2ccccc21)[C@H]1CC1(Cl)Cl [Example 36, 1-(2-{(1R,3S,5R)-3-[(R)-1-((R)-2,2-Dichloro-cyclopropyl)-ethylcarbamoyl]-2-aza-bicyclo[3.1.0]hex-2-yl}-2-oxo-ethyl)-1H-indazole-3-carboxylic acid amide]	25 nM
CC(=O)c1nn(CC(=O)N2[C@@H]3C[C@@H]3C[C@H]2C(=O)NCC2CCCCC2(C)C)c2cnccc12 (single isomer, unassigned; dia 1) [Example 21]	118 nM
NC(=O)n1cc(NC(=O)N2[C@@H]3C[C@@H]3C[C@H]2C(=O)NCC2CCCCC2)c2ccccc21 [Example 25, (1R,3S,5R)-2-Aza-bicyclo[3.1.0]hexane-2,3-dicarboxylic acid 2-[(1-carbamoyl-1H-indol-3-yl)-amide]3-cyclohexylmethyl-amide]	257 nM
NC(=O)c1nn(CC(=O)N2[C@@H]3C[C@@H]3C[C@H]2C(=O)NC[C@@H]2CC2(Cl)Cl)c2ccccc12 [Example 70, 1-(2-{(1R,3S,5R)-3-[((S)-2,2-Dichloro-cyclopropylmethyl)-carbamoyl]-2-aza-bicyclo[3.1.0]hex-2-yl}-2-oxo-ethyl)-1H-indazole-3-carboxylic acid amide]	90 nM
CC(=O)c1nn(CC(=O)N2[C@@H]3C[C@@H]3C[C@H]2C(=O)NC[C@H]2CC2(Cl)Cl)c2cnccc12 [Example 92, (1R,3S,5R)-2-[2-(3-Acetyl-pyrazolo[3,4-c]pyridin-1-yl)-acetyl]-2-aza-bicyclo[3.1.0] hexane-3-carboxylic acid ((R)-2,2-dichloro-cyclopropylmethyl)-amide]	24 nM
NC(=O)c1nn(CC(=O)N2[C@@H]3C[C@@H]3C[C@H]2C(=O)NC[C@H]2CC2(Cl)Cl)c2ccc(OCc3nccs3)cc12 [Example 40, 1-(2-{(1R,3S,5R)-3-[((R)-2,2-Dichloro-cyclopropylmethyl)-carbamoyl]-2-aza-bicyclo[3.1.0]hex-2-yl}-2-oxo-ethyl)-5-(thiazol-2-ylmethoxy)-1H-indazole-3-carboxylic acid amide]	7 nM
[2H]C([2H])([2H])[C@@H](NC(=O)[C@@H]1C[C@H]2C[C@H]2N1C(=O)Nc1cn(C(N)=O)c2ccccc12)[C@H]1CC1(Cl)Cl [Example 30, (1R,3S,5R)-2-Aza-bicyclo [3.1.0]hexane-2,3-dicarboxylic acid 2-[(1-carbamoyl-1H-indol-3-yl)-amide] 3-{[(R)-1-((R)-2,2-dichloro-cyclopropyl)-ethyl-2,2,2-D3]-amide}]	15 nM
CC1(C)[C@@H](CNC(=O)[C@@H]2C[C@H]3C[C@H]3N2C(=O)Cn2nc(C(N)=O)c3ccncc32)C1(Cl)Cl [Example 101, 1-(2-{(1R,3S,5R)-3-[((S)-2,2-Dichloro-3,3-dimethyl-cyclopropylmethyl)-carbamoyl]-2-aza-bicyclo[3.1.0]hex-2-yl}-2-oxo-ethyl)-1H-pyrazolo[3,4-c]pyridine-3-carboxylic acid amide]	297 nM
CC(=O)c1nn(CC(=O)N2[C@@H]3C[C@@H]3C[C@H]2C(=O)NCC2CCCC(C)C2)c2cnccc12 (single isomer, unassigned; dia 1) [Example 119]	188 nM
CC1(C)[C@H](CNC(=O)[C@@H]2C[C@H]3C[C@H]3N2C(=O)Cn2nc(C(N)=O)c3ccncc32)C1(Cl)Cl [Example 102, 1-(2-{(1R,3S,5R)-3-[((R)-2,2-Dichloro-3,3-dimethyl-cyclopropylmethyl)-carbamoyl]-2-aza-bicyclo[3.1.0]hex-2-yl}-2-oxo-ethyl)-1H-pyrazolo[3,4-c]pyridine-3-carboxylic acid amide]	118 nM

Same assay, conditions: IC50, Factor D inhibition data using Method 1; recombinant human factor D 10 nM, substrate Z-Lys-thiobenzyl, fluorescence

Compound	IC50
CC1C(CNC(=O)[C@@H]2C[C@H]3C[C@H]3N2C(=O)Cn2nc(C(N)=O)c3ccccc32)C1(Cl)Cl (single isomer, unassigned; dia 1) [Example 77, 1-(2-{(1R,3S,5R)-3-[((1R,3S) or (1S,3R)-2,2-Dichloro-3-methyl-cyclopropylmethyl)-carbamoyl]-2-aza-bicyclo[3.1.0]hex-2-yl}-2-oxoethyl)-1H-indazole-3-carboxylic acid amide-Dia 1]	35 nM
CC1C(CNC(=O)[C@@H]2C[C@H]3C[C@H]3N2C(=O)Cn2nc(C(N)=O)c3ccccc32)C1(Cl)Cl (single isomer, unassigned; dia 2) [Example 78, 1-(2-{(1R,3S,5R)-3-[((1R,3S) or (1S,3R)-2,2-Dichloro-3-methyl-cyclopropylmethyl)-carbamoyl]-2-aza-bicyclo[3.1.0]hex-2-yl}-2-oxo-ethyl)-1H-indazole-3-carboxylic acid amide-Dia 2]	62 nM
NC(=O)c1nn(CC(=O)N2[C@@H]3C[C@@H]3C[C@H]2C(=O)NC(CO)C2CC2(Cl)Cl)c2ccccc12 (single isomer, unassigned; dia 3) [Example 50]	7300 nM
CC(=O)c1nn(CC(=O)N2[C@@H]3C[C@@H]3C[C@H]2C(=O)NC(C)C2CC2(Cl)Cl)c2ccc(OCc3ncccn3)cc12 (single isomer, unassigned; dia 3) [Example 34]	513 nM
CC(=O)c1nn(CC(=O)N2[C@@H]3C[C@@H]3C[C@H]2C(=O)NCC2C(C)C2(Cl)Cl)c2ccc(OCc3ncccn3)cc12 (single isomer, unassigned; dia 2) [Example 109, (1R,3S,5R)-2-{2-[3-Acetyl-5-(pyrimidin-2-ylmethoxy)-indazol-1-yl]-acetyl}-2-aza-bicyclo[3.1.0] hexane-3-carboxylic acid ((1R,3S) or (1S,3R)-2,2-dichloro-3-methyl-cyclopropylmethyl)-amide-Dia 2]	49 nM
CC(=O)c1nn(CC(=O)N2[C@@H]3C[C@@H]3C[C@H]2C(=O)NC(C)C2CC2(Cl)Cl)c2ccc(OCc3ncccn3)cc12 (single isomer, unassigned; dia 4) [Example 35]	324 nM
CC1C(CNC(=O)[C@@H]2C[C@H]3C[C@H]3N2C(=O)Cn2nc(C(N)=O)c3ccccc32)C1(Cl)Cl (single isomer, unassigned; dia 1) [Example 73, 1-(2-{(1R,3S,5R)-3-[((1R,3R) or (1S,3S)-2,2-Dichloro-3-methyl-cyclopropylmethyl)-carbamoyl]-2-aza-bicyclo[3.1.0]hex-2-yl}-2-oxo-ethyl)-1H-indazole-3-carboxylic acid amide-Dia 1]	100 nM
